Results from US20100249223A1, “NEW USE FOR CANNABINOID-CONTAINING PLANT EXTRACTS” (priority 2007, published 2010).
Where two headings read alike, the source gives them in different places.

What was measured:
TRPA1 channel = biological target: T1, TRPA1 channel (Rattus norvegicus, UniProt Q6RI86); test: Intracellular Ca2+ elevation in HEK-293 cells over-expressing rat TRPA1; type: cell-based
T1 construct: expressed in transfected cells
Procedure: (§1) The applicants have conducted experiments using cannabinoid-containing plant extracts on rat recombinant TRPV1, TRPM8 channels and TRPA1 (also known as ANKTM1) channels, both were stably expressed in HEK293 cells. […] The TRPM8 channel is the receptor from menthol and icilin. The intracellular Ca^2+ concentration was determined before and after the addition of various concentrations of test compounds.
(§2) For the experiments with the TRPM8 channels menthol and icilin were used to activate the channels. For the experiments with the TRPV1 channels ionomycin was used to activate the channels. The cannabinoid-containing plant extracts were produced from cannabis plants using the subcritical CO2 extraction technique as described in the applicants granted United Kingdom patent GB2391865. The cannabinoids were then purified further using the method disclosed in the applicants granted United Kingdom patent GB2393721 to produce substantially pure cannabinoids. Un-purified plant extracts of THC and CBD were also tested in the experiments with the TRPA1 channels.
(§3) HEK293 (human embryonic kidney) cells were plated on 100 mm diameter Petri dishes and transfected at about 80% confluence with Lipofectamine 2000 (Invitrogen) using a plasmid containing the rat TRPA1, TRPV1 or TRPM8 cDNA, according to the manufacturer's protocol. A stably transfected clone was selected by Geneticin G-418 (Invitrogen) 600 μg/ml. Stable transfection was checked by quantitative real time-PCR (RT-PCR).
(§4) TRPA/TRPV1/TRPM8-HEK-293 cells were plated on 100 mm diameter Petri dishes and after 3 days loaded for 1 hour at room temperature with the cytoplasmic calcium indicator Fluo-4-AM (4 μM, Molecular Probes) dissolved in Tyrode' buffer (NaCl 145 mM; KCl 2.5 mM; CaCl2 1.5 mM; MgCl2 1.2 mM; D-Glucose 10 mM; HEPES 10 mM pH 7.4) containing Pluronic (0.02%, Molecular Probes). The cells were washed twice in Tyrode buffer, resuspended and transferred to the quartz cuvette of the spectrofluorimeter (Perkin-Elmer LS 50B) (λ excitation=488 nm; λ emission=516 nm). Intracellular Ca^2+ concentration was determined before and after the addition of various concentrations of test compounds. EC50 values were determined as the concentration of test substances required to produce half-maximal increases in intracellular Ca^2+ concentration. Curve fitting and parameter estimation was performed with Graph Pad Prism®. The same compounds were tested also on non-transfected HEK 293 cells.

TRPV1 channel = biological target: T2, TRPV1 channel (Rattus norvegicus, UniProt O35433); test: Intracellular Ca2+ elevation in HEK-293 cells over-expressing rat TRPV1; type: cell-based; settings: for Emax: HEK293, read-out: Maximal response (% ionomycin)
T2 construct: expressed in transfected cells
T2 sequence (O35433 whole entry): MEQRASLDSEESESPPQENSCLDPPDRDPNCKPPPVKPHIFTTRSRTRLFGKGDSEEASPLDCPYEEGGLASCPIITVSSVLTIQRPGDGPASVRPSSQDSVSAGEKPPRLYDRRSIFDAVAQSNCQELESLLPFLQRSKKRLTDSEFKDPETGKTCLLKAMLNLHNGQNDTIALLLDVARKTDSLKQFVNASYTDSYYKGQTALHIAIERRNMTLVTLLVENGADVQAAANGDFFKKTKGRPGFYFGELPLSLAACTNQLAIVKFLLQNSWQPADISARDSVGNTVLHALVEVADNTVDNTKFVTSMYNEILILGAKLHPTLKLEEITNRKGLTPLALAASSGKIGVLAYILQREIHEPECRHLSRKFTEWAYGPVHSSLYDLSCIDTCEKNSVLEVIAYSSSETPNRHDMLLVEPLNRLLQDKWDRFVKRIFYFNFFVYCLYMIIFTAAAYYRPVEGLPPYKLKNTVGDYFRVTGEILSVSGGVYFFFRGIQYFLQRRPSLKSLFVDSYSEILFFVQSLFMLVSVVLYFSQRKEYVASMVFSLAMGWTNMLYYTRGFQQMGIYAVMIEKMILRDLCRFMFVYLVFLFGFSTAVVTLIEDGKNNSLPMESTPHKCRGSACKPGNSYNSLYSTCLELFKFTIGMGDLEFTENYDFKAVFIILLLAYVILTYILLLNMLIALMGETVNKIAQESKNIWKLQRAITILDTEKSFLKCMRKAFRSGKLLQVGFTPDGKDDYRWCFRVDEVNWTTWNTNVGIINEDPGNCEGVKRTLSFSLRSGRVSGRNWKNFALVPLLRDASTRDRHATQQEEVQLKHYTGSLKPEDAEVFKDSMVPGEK
Procedure: as §1, §2, §3, §4

[1] = HEK293, TRPA1-HEK-293 cells, relative to mustard oil 100 μM, read-out: Maximal response (% of mustard oil 100 μM)
[2] = TRPA1-HEK-293 cells, Fluo-4, read-out: -logEC50% (M) for the elevation of [Ca2+]i (converted)
[3] = TRPA1, summary of Table 1, read-out: EC50 values (range given)

T1 sequence (Q6RI86 whole entry): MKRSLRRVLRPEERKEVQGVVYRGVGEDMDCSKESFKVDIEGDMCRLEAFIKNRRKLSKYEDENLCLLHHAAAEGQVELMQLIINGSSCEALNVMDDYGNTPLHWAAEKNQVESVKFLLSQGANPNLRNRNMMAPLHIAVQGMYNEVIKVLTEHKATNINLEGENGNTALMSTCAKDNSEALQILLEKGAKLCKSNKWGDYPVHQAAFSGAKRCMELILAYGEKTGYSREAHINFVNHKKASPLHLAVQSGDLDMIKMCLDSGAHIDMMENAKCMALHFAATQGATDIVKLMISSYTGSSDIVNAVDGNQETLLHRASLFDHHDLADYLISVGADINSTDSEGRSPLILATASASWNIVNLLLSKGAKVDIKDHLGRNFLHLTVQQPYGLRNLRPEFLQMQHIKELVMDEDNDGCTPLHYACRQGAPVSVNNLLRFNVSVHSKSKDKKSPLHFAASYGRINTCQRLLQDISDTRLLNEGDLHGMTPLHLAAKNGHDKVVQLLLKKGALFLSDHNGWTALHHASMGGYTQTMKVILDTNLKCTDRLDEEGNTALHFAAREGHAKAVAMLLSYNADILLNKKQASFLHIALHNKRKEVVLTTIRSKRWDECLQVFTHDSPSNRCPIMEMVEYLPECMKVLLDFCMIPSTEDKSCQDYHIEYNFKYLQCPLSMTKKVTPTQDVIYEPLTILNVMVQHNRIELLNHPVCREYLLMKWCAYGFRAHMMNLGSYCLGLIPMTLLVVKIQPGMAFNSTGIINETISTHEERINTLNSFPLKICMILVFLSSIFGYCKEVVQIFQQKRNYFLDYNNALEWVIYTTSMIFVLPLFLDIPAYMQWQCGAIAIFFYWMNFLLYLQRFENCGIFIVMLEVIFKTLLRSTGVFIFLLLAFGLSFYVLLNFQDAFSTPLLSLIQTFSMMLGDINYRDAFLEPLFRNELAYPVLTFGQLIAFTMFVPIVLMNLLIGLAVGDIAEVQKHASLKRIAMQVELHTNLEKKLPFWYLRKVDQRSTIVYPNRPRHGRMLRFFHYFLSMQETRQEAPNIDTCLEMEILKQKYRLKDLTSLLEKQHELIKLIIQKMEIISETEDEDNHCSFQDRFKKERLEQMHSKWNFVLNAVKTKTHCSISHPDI

SMILES | Emax (TRPA1 channel; [1]) [%] | EC50 (TRPA1 channel; [2]) [M] | EC50 (TRPV1 channel) [µM] | Emax (TRPV1 channel) [%] | also measured
CCCCCc1cc(O)c2c(c1)OC(C)(CCC=C(C)C)C=C2 (centres unmarked) [CBC, cannabichromene] | 118 ± 10 | 3.31e-08 | 24.2 | 9 ± 4.9 | EC50 (TRPA1 channel; [3]): 6e-08 to 1e-07 M
C=C(C)[C@@H]1CCC(C)=C[C@H]1c1c(O)cc(CCCCC)cc1O [CBD, cannabidiol] | 86.9 ± 8 | 8.51e-08 | 0.7 | 50 ± 1 | EC50 (TRPA1 channel; [3]): 6e-08 to 1e-07 M
C=C(C)[C@@H]1CCC(C)=C[C@H]1c1c(O)cc(CCCCC)c(C(=O)O)c1O [CBDA, cannabidiolic acid] | 48.2 ± 6 | 8.13e-07 |  |  | 
C=C(C)[C@@H]1CCC(C)=C[C@H]1c1c(O)cc(CCC)cc1O [CBDV, cannabidivarin] |  |  | 1.4 | 19.8 ± 1.9 | 
CCCCCc1cc(O)c(C/C=C(\C)CCC=C(C)C)c(O)c1 [CBG, cannabigerol] |  |  | 1 | 54.4 ± 5.4 | 
COc1cc(CNC(=O)CCCC/C=C/C(C)C)ccc1O [Capsaicin, reference compound] |  |  |  | 68.6 ± 1.2 | 
O=CC=Cc1ccccc1 [Cinnamaldehyde, cinnamaldehyde, reference compound] | 99.1 ± 9 | 1.29e-05 |  |  | 
C=CCN=C=S [Mustard oil (allyl isothiocyanate), allyl isothiocyanate, reference compound] |  |  |  |  | Emax at 100 µM (TRPA1 channel; [1]): 100 ± 11%
CCCCCc1cc(O)c2c(c1)OC(C)(C)[C@@H]1CCC(C)=C[C@@H]21 [THC, tetrahydrocannabinol] | 117 ± 12 | 1.86e-07 |  |  | 
CCCCCc1cc2c(c(O)c1C(=O)O)[C@@H]1C=C(C)CC[C@H]1C(C)(C)O2 [THCA, tetrahydrocannabinolic acid] |  |  |  |  | Maximal response (% of mustard oil 100 μM) (TRPA1 channel; TRPA1-HEK-293 cells, relative to mustard oil 100 μM): 70.1 ± 8%
